# Results from PMC7754187 (ACS Chemical Biology, 2020).
# Non-standard residues stand in square brackets, D forms with d. Residues, ends and D or L forms follow the SMILES beside them. pS = N[C@@H](COP(=O)(O)O)C(=O)O
# Tested on: seven human 14-3-3 isoforms
# Assay: FA of ERRγ phosphopeptides with the seven 14-3-3 isoforms
# Type: binding
# Settings: 14-3-3γ compared with other isoforms; Figure 2b, Figure S1
smiles,measurement,value
CC(=O)N[C@@H](CCCCN)C(=O)N[C@@H](CCCNC(=N)N)C(=O)N[C@@H](CCCNC(=N)N)C(=O)N[C@@H](CCCNC(=N)N)C(=O)N[C@@H](CCCCN)C(=O)N[C@@H](COP(=O)(O)O)C(=O)N[C@@H](CS)C(=O)N[C@@H](CCC(N)=O)C(=O)N[C@@H](C)C(N)=O [DBD] (Ac-KRRRK[pS]CQA-NH2),Relative affinity among 14-3-3 isoforms (in words),highest affinity
